Assay results taken from PMC8213057, “Targeting ALK2: An Open Science Approach to Developing Therapeutics for the Treatment of Diffuse Intrinsic Pontine Glioma” (Journal of Medicinal Chemistry, 2020).

How the values were obtained:
Details in all cases: 1 μM; Run 1, Run 2
GRK2 = biological target: T1, GRK2 (Homo sapiens, UniProt P25098)
T1 sequence (P25098 1-689): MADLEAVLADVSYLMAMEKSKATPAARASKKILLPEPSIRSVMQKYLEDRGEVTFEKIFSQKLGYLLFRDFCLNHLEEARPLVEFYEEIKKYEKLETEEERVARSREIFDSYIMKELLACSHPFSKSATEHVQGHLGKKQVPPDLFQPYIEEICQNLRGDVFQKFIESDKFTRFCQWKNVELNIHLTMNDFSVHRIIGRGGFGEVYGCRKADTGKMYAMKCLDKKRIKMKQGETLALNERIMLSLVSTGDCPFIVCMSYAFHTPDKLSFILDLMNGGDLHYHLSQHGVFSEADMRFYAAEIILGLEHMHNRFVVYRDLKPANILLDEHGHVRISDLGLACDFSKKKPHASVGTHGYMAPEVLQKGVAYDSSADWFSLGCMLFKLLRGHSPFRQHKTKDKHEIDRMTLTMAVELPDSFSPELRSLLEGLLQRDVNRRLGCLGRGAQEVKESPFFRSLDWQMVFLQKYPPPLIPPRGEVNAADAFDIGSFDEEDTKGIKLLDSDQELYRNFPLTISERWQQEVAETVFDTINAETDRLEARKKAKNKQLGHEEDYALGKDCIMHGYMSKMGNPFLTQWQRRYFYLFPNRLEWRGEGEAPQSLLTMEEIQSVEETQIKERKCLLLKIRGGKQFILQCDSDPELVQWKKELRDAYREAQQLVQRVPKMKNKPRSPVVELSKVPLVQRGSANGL

KDR/VEGFR2 = KDR/VEGFR2 (Homo sapiens, UniProt P35968)
KSR2 = biological target: T2, KSR2 (Homo sapiens, UniProt Q6VAB6)
T2 sequence (Q6VAB6 1-950): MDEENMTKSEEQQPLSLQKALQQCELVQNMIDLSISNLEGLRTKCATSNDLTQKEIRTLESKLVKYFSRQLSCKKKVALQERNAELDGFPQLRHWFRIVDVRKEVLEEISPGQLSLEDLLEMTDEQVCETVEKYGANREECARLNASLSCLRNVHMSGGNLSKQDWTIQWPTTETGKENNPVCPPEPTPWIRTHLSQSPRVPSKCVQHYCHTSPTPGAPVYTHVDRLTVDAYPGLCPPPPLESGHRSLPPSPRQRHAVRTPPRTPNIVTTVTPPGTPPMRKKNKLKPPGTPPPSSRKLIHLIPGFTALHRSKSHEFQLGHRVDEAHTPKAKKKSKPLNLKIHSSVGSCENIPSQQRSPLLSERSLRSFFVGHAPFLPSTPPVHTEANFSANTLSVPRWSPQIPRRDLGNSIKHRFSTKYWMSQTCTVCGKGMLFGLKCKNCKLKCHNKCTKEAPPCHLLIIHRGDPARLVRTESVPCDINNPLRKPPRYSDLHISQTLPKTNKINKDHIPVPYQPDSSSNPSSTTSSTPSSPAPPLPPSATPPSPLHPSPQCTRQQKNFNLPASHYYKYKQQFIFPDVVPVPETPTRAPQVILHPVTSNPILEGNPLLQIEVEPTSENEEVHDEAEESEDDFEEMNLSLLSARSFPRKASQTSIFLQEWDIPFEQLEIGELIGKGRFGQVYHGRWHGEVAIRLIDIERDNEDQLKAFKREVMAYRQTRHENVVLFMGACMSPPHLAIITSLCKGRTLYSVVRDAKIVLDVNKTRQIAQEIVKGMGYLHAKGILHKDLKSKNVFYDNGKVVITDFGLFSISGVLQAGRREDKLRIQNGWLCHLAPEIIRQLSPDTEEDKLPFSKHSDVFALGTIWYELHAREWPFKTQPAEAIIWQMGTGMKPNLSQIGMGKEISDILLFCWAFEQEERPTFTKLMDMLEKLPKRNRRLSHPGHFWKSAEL

MYO3b = biological target: T3, MYO3b (Homo sapiens, UniProt Q8WXR4)
T3 sequence (Q8WXR4 1-1341): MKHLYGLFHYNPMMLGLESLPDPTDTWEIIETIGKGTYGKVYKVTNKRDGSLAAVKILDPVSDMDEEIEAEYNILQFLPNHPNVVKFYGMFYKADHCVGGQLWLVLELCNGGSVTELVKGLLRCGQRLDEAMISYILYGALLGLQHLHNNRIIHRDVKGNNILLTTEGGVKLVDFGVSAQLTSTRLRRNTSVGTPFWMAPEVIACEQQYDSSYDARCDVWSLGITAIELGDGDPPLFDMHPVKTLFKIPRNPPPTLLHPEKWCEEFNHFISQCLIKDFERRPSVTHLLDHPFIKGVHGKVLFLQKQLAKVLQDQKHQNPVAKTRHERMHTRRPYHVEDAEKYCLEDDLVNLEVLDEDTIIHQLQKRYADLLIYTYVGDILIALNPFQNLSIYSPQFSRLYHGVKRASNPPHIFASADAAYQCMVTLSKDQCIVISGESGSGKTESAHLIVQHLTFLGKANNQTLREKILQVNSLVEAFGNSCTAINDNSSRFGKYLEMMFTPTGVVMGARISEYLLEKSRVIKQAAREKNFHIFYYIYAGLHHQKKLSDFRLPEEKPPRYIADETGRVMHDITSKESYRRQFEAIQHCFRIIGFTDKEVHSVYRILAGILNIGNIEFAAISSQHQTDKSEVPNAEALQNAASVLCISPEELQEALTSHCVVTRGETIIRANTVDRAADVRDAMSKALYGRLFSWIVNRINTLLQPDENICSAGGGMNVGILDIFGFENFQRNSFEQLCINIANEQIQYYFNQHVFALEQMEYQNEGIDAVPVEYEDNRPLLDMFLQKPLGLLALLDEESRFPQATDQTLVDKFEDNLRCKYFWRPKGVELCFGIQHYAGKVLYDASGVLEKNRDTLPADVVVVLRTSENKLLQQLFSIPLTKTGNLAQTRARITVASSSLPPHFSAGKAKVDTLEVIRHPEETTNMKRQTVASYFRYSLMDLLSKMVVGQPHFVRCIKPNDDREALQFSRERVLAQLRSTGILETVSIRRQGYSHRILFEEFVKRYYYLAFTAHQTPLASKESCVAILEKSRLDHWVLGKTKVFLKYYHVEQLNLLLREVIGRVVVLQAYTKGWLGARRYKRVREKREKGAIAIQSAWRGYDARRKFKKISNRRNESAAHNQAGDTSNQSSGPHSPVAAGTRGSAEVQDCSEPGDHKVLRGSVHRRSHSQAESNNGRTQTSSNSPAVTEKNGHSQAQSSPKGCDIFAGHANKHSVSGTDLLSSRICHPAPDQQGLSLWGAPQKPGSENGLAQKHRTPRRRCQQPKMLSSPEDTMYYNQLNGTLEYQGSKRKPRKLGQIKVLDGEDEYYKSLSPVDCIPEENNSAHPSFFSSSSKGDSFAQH

SRPK2 = SRPK2 (Homo sapiens, UniProt P78362)
SRPK2, sequence (P78362 whole entry): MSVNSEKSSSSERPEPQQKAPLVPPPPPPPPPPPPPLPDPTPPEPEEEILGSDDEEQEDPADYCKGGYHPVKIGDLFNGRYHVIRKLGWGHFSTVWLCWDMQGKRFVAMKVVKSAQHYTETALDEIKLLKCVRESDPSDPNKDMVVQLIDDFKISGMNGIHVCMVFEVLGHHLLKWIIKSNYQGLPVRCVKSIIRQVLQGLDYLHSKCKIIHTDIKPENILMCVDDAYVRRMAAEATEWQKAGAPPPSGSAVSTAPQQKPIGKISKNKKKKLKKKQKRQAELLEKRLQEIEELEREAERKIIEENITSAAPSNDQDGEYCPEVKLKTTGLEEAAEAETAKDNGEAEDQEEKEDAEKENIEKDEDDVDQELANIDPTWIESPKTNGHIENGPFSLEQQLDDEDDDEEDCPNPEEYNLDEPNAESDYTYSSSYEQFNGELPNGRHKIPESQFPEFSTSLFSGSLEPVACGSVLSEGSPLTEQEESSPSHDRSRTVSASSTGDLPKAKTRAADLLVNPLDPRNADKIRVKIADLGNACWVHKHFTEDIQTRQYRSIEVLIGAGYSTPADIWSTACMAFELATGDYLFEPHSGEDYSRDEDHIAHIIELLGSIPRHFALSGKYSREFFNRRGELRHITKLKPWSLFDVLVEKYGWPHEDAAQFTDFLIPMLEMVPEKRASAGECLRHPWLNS

KDR/VEGFR2, sequence (P35968 20-1356): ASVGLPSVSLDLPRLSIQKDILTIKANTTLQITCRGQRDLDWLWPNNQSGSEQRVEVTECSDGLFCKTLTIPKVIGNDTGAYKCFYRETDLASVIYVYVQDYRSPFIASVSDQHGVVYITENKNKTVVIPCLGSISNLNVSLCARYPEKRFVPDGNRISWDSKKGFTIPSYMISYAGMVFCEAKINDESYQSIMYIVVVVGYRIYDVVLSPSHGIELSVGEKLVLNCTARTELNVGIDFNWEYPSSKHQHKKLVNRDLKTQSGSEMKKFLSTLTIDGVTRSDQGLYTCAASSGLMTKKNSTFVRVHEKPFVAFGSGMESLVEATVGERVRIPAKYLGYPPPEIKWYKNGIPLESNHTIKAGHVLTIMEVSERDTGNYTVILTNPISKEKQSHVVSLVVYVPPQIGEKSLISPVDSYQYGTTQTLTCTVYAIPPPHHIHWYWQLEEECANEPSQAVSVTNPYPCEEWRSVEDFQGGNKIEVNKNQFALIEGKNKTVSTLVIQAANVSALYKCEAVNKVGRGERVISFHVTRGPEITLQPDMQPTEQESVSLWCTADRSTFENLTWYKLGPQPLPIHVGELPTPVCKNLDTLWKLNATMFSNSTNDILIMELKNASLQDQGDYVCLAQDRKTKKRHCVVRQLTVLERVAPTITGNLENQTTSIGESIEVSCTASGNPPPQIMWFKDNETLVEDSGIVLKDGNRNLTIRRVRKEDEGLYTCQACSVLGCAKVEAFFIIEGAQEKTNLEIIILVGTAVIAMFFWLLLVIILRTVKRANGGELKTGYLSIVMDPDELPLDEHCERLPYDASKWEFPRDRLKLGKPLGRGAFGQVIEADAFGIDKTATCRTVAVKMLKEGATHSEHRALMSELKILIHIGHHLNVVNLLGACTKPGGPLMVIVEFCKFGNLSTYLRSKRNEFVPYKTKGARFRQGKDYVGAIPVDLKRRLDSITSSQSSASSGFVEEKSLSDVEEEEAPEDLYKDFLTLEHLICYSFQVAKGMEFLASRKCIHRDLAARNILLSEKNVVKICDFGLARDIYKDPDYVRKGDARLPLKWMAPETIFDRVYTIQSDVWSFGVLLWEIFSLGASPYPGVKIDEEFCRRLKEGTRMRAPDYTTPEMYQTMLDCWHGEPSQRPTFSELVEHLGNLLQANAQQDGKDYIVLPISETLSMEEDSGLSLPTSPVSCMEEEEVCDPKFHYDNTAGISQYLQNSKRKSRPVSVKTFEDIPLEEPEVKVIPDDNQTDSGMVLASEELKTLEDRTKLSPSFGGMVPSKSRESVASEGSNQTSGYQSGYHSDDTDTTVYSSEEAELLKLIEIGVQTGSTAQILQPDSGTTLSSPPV

SMILES	% enzyme activity (GRK2) [%]	% enzyme activity (KDR/VEGFR2) [%]	% enzyme activity (KSR2) [%]	% enzyme activity (MYO3b) [%]	% enzyme activity (SRPK2) [%]
COc1cc(-c2cncc(-c3ccc(N4CCN(C)CC4)cc3)c2C)cc(F)c1C(N)=O [Compound 26a, 2-Fluoro-6-methoxy-4-(4-methyl-5-(4-(4-methylpiperazin-1-yl)phenyl)pyridin-3-yl)benzamide]	103.58	92.99	93.25	81.31	94.13
COc1cc(-c2cncc(-c3ccc(N4C[C@@H](C)N(C)[C@@H](C)C4)cc3)c2C)cc(F)c1C(N)=O [Compound 26c, 2-Fluoro-6-methoxy-4-(4-methyl-5-(4-((3R,5S)-3,4,5-trimethylpiperazin-1-yl)phenyl)pyridin-3-yl)benzamide]	99.17	85.59	97.71	85.13	115.95
